Source: paper PMC8134075, “Structure of mouse cytosolic sulfotransferase SULT2A8 provides insight into sulfonation of 7α-hydroxyl bile acids” (Journal of Lipid Research, 2021)
Numbering of substitutions follows the chain as printed.

Key:
SULT2A8 [1] = molecular target: T1, SULT2A8 (Mus musculus, UniProt Q8BGL3); assay: X-ray crystal structure; type: binding; details: pH 5.1
T1 construct: truncated, residues 4-282 (first three residues removed), N-terminal GST tag cleaved with PreScission protease (pGEX-6P-3); E. coli BL21(DE3), purified from inclusion bodies; homodimer in crystal
T1 sequence (Q8BGL3 4-282): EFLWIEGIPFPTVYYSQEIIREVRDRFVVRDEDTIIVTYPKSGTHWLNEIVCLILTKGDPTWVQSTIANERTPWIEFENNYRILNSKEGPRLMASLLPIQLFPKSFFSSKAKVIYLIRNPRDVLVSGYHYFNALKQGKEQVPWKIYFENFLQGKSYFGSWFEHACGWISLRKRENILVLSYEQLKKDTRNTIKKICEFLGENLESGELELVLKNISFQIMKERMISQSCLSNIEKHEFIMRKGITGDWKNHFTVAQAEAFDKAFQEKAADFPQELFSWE

SULT2A8 [2] = molecular target: T1, SULT2A8; assay: thermal shift assay (Thermofluor); type: binding; details: 20 mM Hepes pH 8.0, 150 mM NaCl, 4 mM DTT, ligand 250 mM [sic]
SULT2A8 [3] = molecular target: T1, SULT2A8; assay: HPLC of PAP generated; type: biochemical; details: 50 μM PAPS, 100 μM bile acid, 2.5 mM MgCl2, pH 5.5 or 7.5, 37°C
SULT2A8 [4] = molecular target: T2, SULT2A8 (Mus musculus, UniProt Q8BGL3, L99T); assay: thermal shift assay (Thermofluor); type: binding; details: 20 mM Hepes pH 8.0, 150 mM NaCl, 4 mM DTT; ligand 250 mM [sic]
T2 construct: truncated, residues 4-282 (first three residues removed), N-terminal GST tag cleaved with PreScission protease (pGEX-6P-3); E. coli BL21(DE3), purified from inclusion bodies; homodimer in crystal
T2 sequence (Q8BGL3 4-282 L99T): T1 sequence (Q8BGL3 4-282) with L96T

SULT2A8 [5] = molecular target: T3, SULT2A8 (Mus musculus, UniProt Q8BGL3, N72W); assay: thermal shift assay (Thermofluor); type: binding; details: 20 mM Hepes pH 8.0, 150 mM NaCl, 4 mM DTT; ligand 250 mM [sic]
T3 construct: truncated, residues 4-282 (first three residues removed), N-terminal GST tag cleaved with PreScission protease (pGEX-6P-3); E. coli BL21(DE3), purified from inclusion bodies; homodimer in crystal
T3 sequence (Q8BGL3 4-282 N72W): T1 sequence (Q8BGL3 4-282) with N69W

SULT2A8 [6] = molecular target: T4, SULT2A8 (Mus musculus, UniProt Q8BGL3, H48T); assay: thermal shift assay (Thermofluor); type: binding; details: 20 mM Hepes pH 8.0, 150 mM NaCl, 4 mM DTT; ligand 250 mM [sic]
T4 construct: truncated, residues 4-282 (first three residues removed), N-terminal GST tag cleaved with PreScission protease (pGEX-6P-3); E. coli BL21(DE3), purified from inclusion bodies; homodimer in crystal
T4 sequence (Q8BGL3 4-282 H48T): T1 sequence (Q8BGL3 4-282) with H45T

SULT2A8 [7] = molecular target: T5, SULT2A8 (Mus musculus, UniProt Q8BGL3, L99V); assay: thermal shift assay (Thermofluor); type: binding; details: 20 mM Hepes pH 8.0, 150 mM NaCl, 4 mM DTT; ligand 250 mM [sic]
T5 construct: truncated, residues 4-282 (first three residues removed), N-terminal GST tag cleaved with PreScission protease (pGEX-6P-3); E. coli BL21(DE3), purified from inclusion bodies; homodimer in crystal
T5 sequence (Q8BGL3 4-282 L99V): T1 sequence (Q8BGL3 4-282) with L96V

[8] = molecular target: the molecule itself; assay: crystal structure; SULT2A8 (4-282) cocrystallised with PAP and CA, pH 5.1, 16°C; space group P4(2), two copies per asymmetric unit; dimerization read from analysis of the crystal packing

C[C@H](CCC(=O)O)[C@H]1CC[C@H]2[C@@H]3[C@H](O)C[C@@H]4C[C@H](O)CC[C@]4(C)[C@H]3C[C@H](O)[C@]12C [CA]
X-ray crystal structure, 2.5 A (SULT2A8 [1]; co-crystal with PAP, substrate pocket): SULT2A8 was cocrystallized with PAP and its native substrate CA

C[C@H](CCC(=O)O)[C@H]1CC[C@H]2[C@@H]3[C@H](O)C[C@@H]4C[C@H](O)CC[C@]4(C)[C@H]3CC[C@]12C [Na CDC]
Tm (SULT2A8 [2]): Na CDC, or sodium taurochenodeoxycholate) were added

C[C@H](CCC(=O)O)[C@H]1CC[C@H]2[C@@H]3[C@H](O)C[C@@H]4C[C@H](O)CC[C@]4(C)[C@H]3C[C@H](O)[C@]12C [Na C]
Tm (SULT2A8 [2]; with PAP): Tm values were further increased when both PAP and native substrates (Na C, Na T-C

C[C@H](CCC(=O)NCCS(=O)(=O)O)[C@H]1CC[C@H]2[C@@H]3[C@H](O)C[C@@H]4C[C@H](O)CC[C@]4(C)[C@H]3CC[C@]12C [Na T-CDC]
Tm (SULT2A8 [2]): Na CDC, or sodium taurochenodeoxycholate) were added

Nc1ncnc2c1ncn2[C@@H]1O[C@H](COP(=O)(O)OS(=O)(=O)O)[C@@H](OP(=O)(O)O)[C@H]1O [PAPS]
HPLC of PAP generated (SULT2A8 [3]): quantification of PAP generated from the sulfonation of substrates

Nc1ncnc2c1ncn2[C@@H]1O[C@H](COP(=O)(O)O)[C@@H](OP(=O)(O)O)[C@H]1O [PAP]
Tm (SULT2A8 [4]): Tm values of these mutants were significantly increased when PAP was included
Tm (SULT2A8 [5]): the Tm value of N72W was increased when PAP was added
Tm (SULT2A8 [6]): Tm values of these mutants were significantly increased when PAP was included
X-ray crystal structure, 2.5 A (SULT2A8 [1]; co-crystal with cholic acid, PAPS binding pocket, cofactor product/analogue): SULT2A8 protein was cocrystallized with PAP and CA
Tm (SULT2A8 [7]): Tm values of these mutants were significantly increased when PAP was included
Tm (SULT2A8 [2]): from 54 to 61 °C

B1: mouse cytosolic sulfotransferase SULT2A8 (residues 4-282) (enzyme, UniProt Q8BGL3 4-282, looked up)
chain: T1 sequence (Q8BGL3 4-282)
notes: Sulfotransferase 2A8 (SULT2A8), mouse, residues 4-282 (first three N-terminal residues removed), cloned in pGEX-6P-3 from pRSET-SULT2A8; Crystallised with the small molecules PAP and cholic acid; two copies per asymmetric unit; also called mSULT2A8; SULT2A8 WT; source: E. coli BL21(DE3), purified from inclusion bodies (Glutathione Sepharose 4B, PreScission cleavage, Superdex 75); not shown: GST, …
binding result [8]: binds
